Measurements from patent US6538014B1, “Process for the aggrochemical treatment of rangelands” (Bayer CropScience, Inc., priority 1992, dated 2003).

Experiments:
Assay type in all cases: in vivo
[1] = test system: Melanoplus sanguinipes; assay: Caged grassland treatment, mortality of grasshoppers; details: for Effectiveness (%) against the grasshopper Melanoplus Sanquinipes, Persistence of Action 7 DAT / Effectiveness (%) against the grasshopper Melanoplus Sanquinipes, Persistence of Action 15 DAT / Effectiveness (%) against the grasshopper Melanoplus Sanquinipes, Persistence of Action 28 DAT: infestation renewed 2 days before
Description: A zone of grassland is treated under controlled conditions, using cages to limit the space of movement of the insects. This zone is infested at a rate of 40 grasshoppers (Melanoplus sanguinipes) per m^2. For experimental purposes, the infestation is renewed 2 days before each observation of the effectiveness of the products, without performing a new insecticide treatment. The results are observed by performing mortality measurements (=percentage of grasshoppers killed). A remarkable persistence of action is observed.

[2] = test system: Chortoicetes terminifera; assay: Grassland treatment, mortality of locusts; details: for Effectiveness (%) against the locust Chortoicetes terminifera, Persistence of action 5 DAT / Effectiveness (%) against the locust Chortoicetes terminifera, Persistence of action 10 DAT / Effectiveness (%) against the locust Chortoicetes terminifera, Persistence of action 20 DAT / Effectiveness (%) against the locust Chortoicetes terminifera, Persistence of action 30 DAT: infestation renewed 2 days before
Description: A zone of grassland infested at a rate of 40 locusts (Chortoicetes terminifera) per m2 is treated, and the infestation is renewed 2 days before each effectiveness measurement. The results are observed by performing mortality measurements (=percentage of locusts killed). A remarkable persistence of action is observed.

[3] = test system: Schistocerca gregaria; assay: Grassland treatment, mortality of locusts; details: for Effectiveness (%) against the locust (Schistocerca gregaria), Persistence of action 7 DAT / Effectiveness (%) against the locust (Schistocerca gregaria), Persistence of action 14 DAT / Effectiveness (%) against the locust (Schistocerca gregaria), Persistence of action 18 DAT: infestation renewed 2 days before
Description: One treats a zone of grassland infested at a rate of 40 locusts (Schistocerca gregaria) per m^2. For experimental purposes, the infestation is renewed 2 days before each effectiveness measurement. The results are observed by performing mortality measurements (=percentage of locusts killed). A remarkable persistence of action is observed.

## N#Cc1nn(-c2c(Cl)cc(C(F)(F)F)cc2Cl)c(N)c1[S+]([O-])C(F)(F)F (centres unmarked) [Product A, 1-[2,6-dichloro-4-CF3-phenyl)-3-cyano-4-CF3SO-5-NH2-pyrazole]
[1]; 6.2 g Product A per hectare
  Effectiveness (%) against the grasshopper Melanoplus Sanquinipes, Immediate Action 1 DAT: 87%
  Effectiveness (%) against the grasshopper Melanoplus Sanquinipes, Persistence of Action 7 DAT: 98%
  Effectiveness (%) against the grasshopper Melanoplus Sanquinipes, Persistence of Action 15 DAT: 93%
  Effectiveness (%) against the grasshopper Melanoplus Sanquinipes, Persistence of Action 28 DAT: 38%
[1]; 12.5 g Product A per hectare
  Effectiveness (%) against the grasshopper Melanoplus Sanquinipes, Immediate Action 1 DAT: 93%
  Effectiveness (%) against the grasshopper Melanoplus Sanquinipes, Persistence of Action 7 DAT: 100%
  Effectiveness (%) against the grasshopper Melanoplus Sanquinipes, Persistence of Action 15 DAT: 100%
  Effectiveness (%) against the grasshopper Melanoplus Sanquinipes, Persistence of Action 28 DAT: 69%
[1]; 25 g Product A per hectare
  Effectiveness (%) against the grasshopper Melanoplus Sanquinipes, Immediate Action 1 DAT: 98%
  Effectiveness (%) against the grasshopper Melanoplus Sanquinipes, Persistence of Action 7 DAT: 100%
  Effectiveness (%) against the grasshopper Melanoplus Sanquinipes, Persistence of Action 15 DAT: 100%
  Effectiveness (%) against the grasshopper Melanoplus Sanquinipes, Persistence of Action 28 DAT: 93%
[2]; 3.1 g product A per hectare
  Effectiveness (%) against the locust Chortoicetes terminifera, Immediate Action 1 DAT Adults: 58%
  Effectiveness (%) against the locust Chortoicetes terminifera, Immediate Action 1 DAT Nymphs: 70%
  Effectiveness (%) against the locust Chortoicetes terminifera, Persistence of action 5 DAT: 96%
  Effectiveness (%) against the locust Chortoicetes terminifera, Persistence of action 10 DAT: 90%
  Effectiveness (%) against the locust Chortoicetes terminifera, Persistence of action 20 DAT: 74%
  Effectiveness (%) against the locust Chortoicetes terminifera, Persistence of action 30 DAT: 55%
[2]; 6.25 g product A per hectare
  Effectiveness (%) against the locust Chortoicetes terminifera, Immediate Action 1 DAT Adults: 93%
  Effectiveness (%) against the locust Chortoicetes terminifera, Immediate Action 1 DAT Nymphs: 100%
  Effectiveness (%) against the locust Chortoicetes terminifera, Persistence of action 5 DAT: 100%
  Effectiveness (%) against the locust Chortoicetes terminifera, Persistence of action 10 DAT: 98%
  Effectiveness (%) against the locust Chortoicetes terminifera, Persistence of action 20 DAT: 93%
  Effectiveness (%) against the locust Chortoicetes terminifera, Persistence of action 30 DAT: 80%
[2]; 12.5 g product A per hectare
  Effectiveness (%) against the locust Chortoicetes terminifera, Immediate Action 1 DAT Adults: 100%
  Effectiveness (%) against the locust Chortoicetes terminifera, Immediate Action 1 DAT Nymphs: 100%
  Effectiveness (%) against the locust Chortoicetes terminifera, Persistence of action 5 DAT: 100%
  Effectiveness (%) against the locust Chortoicetes terminifera, Persistence of action 10 DAT: 100%
  Effectiveness (%) against the locust Chortoicetes terminifera, Persistence of action 20 DAT: 96%
  Effectiveness (%) against the locust Chortoicetes terminifera, Persistence of action 30 DAT: 82%
[2]; 25 g product A per hectare
  Effectiveness (%) against the locust Chortoicetes terminifera, Immediate Action 1 DAT Adults: 100%
  Effectiveness (%) against the locust Chortoicetes terminifera, Immediate Action 1 DAT Nymphs: 100%
  Effectiveness (%) against the locust Chortoicetes terminifera, Persistence of action 5 DAT: 100%
  Effectiveness (%) against the locust Chortoicetes terminifera, Persistence of action 10 DAT: 100%
  Effectiveness (%) against the locust Chortoicetes terminifera, Persistence of action 20 DAT: 100%
  Effectiveness (%) against the locust Chortoicetes terminifera, Persistence of action 30 DAT: 96%
[3]; 2.5 g product A per hectare
  Effectiveness (%) against the locust (Schistocerca gregaria), Immediate Action 1 DAT: 58%
  Effectiveness (%) against the locust (Schistocerca gregaria), Immediate Action 2 DAT: 72%
  Effectiveness (%) against the locust (Schistocerca gregaria), Persistence of action 7 DAT: 88%
  Effectiveness (%) against the locust (Schistocerca gregaria), Persistence of action 14 DAT: 72%
  Effectiveness (%) against the locust (Schistocerca gregaria), Persistence of action 18 DAT: 56%
[3]; 5 g product A per hectare
  Effectiveness (%) against the locust (Schistocerca gregaria), Immediate Action 1 DAT: 82%
  Effectiveness (%) against the locust (Schistocerca gregaria), Immediate Action 2 DAT: 93%
  Effectiveness (%) against the locust (Schistocerca gregaria), Persistence of action 7 DAT: 100%
  Effectiveness (%) against the locust (Schistocerca gregaria), Persistence of action 14 DAT: 93%
  Effectiveness (%) against the locust (Schistocerca gregaria), Persistence of action 18 DAT: 89%
[3]; 10 g product A per hectare
  Effectiveness (%) against the locust (Schistocerca gregaria), Immediate Action 1 DAT: 96%
  Effectiveness (%) against the locust (Schistocerca gregaria), Immediate Action 2 DAT: 100%
  Effectiveness (%) against the locust (Schistocerca gregaria), Persistence of action 7 DAT: 100%
  Effectiveness (%) against the locust (Schistocerca gregaria), Persistence of action 14 DAT: 98%
  Effectiveness (%) against the locust (Schistocerca gregaria), Persistence of action 18 DAT: 92%
[3]; 20 g product A per hectare
  Effectiveness (%) against the locust (Schistocerca gregaria), Immediate Action 1 DAT: 100%
  Effectiveness (%) against the locust (Schistocerca gregaria), Immediate Action 2 DAT: 100%
  Effectiveness (%) against the locust (Schistocerca gregaria), Persistence of action 7 DAT: 100%
  Effectiveness (%) against the locust (Schistocerca gregaria), Persistence of action 14 DAT: 100%
  Effectiveness (%) against the locust (Schistocerca gregaria), Persistence of action 18 DAT: 98%
